Test results reported in paper PMC8464809, “Anticancer and Structure Activity Relationship of Non-Symmetrical Choline Kinase Inhibitors” (Pharmaceutics, 2021).

What was measured:
[1] = system: HT-29 cells; test: Antiproliferative MTT assay, HT-29; format: cell-based; conditions: Homo sapiens, 72 h
Procedure: (§1) Human cervix carcinoma (HeLa) and human breast cancer (MCF-7) were grown in the DMEM medium (Gibco, Milan, Italy). B-acute lymphoblastic leukemia (RS4;11), T-acute lymphoblastic leukemia (CCRF-CEM and Jurkat), human promyelocytic cells (HL-60), and human colon adenocarcinoma (HT-29) cells were grown in RPMI medium (Gibco, Milan, Italy). Both media were supplemented with 115 units/mL of penicillin G (Gibco, Milan, Italy), 115 μg/mL of streptomycin (Invitrogen, Milan, Italy), and 10% FBS (Invitrogen, Milan, Italy). Cell lines were tested for mycoplasma contamination every 6 months by the RT-PCR analysis. Stock solutions (10 mM) of the different compounds were obtained by dissolving them in DMSO. Individual wells of 96-well tissue-culture microtiter plates were inoculated with 100 μL of complete medium containing 5 × 10^3 adherent cells or 25 × 10^3 leukemia cells. The plates were incubated at 37 °C in a humidified 5% CO2 incubator for 18 h prior to the experiments. After medium removal, 100 μL of fresh medium containing the test compound at different concentrations was added to each well and incubated at 37 °C for 72 h.

[2] = target: T1, human ChoKα1 (Homo sapiens, UniProt P35790); test: Inhibition of purified ChoKα1: incorporation of 14C from [methyl-14C]choline into phosphocholine; format: biochemical; conditions: purified ChoKα1, 1 mM choline, 10 mM ATP, 37 °C, 10 min; read-out: IC50 hChoKα1
T1 construct: made in house
T1 sequence (P35790 whole entry): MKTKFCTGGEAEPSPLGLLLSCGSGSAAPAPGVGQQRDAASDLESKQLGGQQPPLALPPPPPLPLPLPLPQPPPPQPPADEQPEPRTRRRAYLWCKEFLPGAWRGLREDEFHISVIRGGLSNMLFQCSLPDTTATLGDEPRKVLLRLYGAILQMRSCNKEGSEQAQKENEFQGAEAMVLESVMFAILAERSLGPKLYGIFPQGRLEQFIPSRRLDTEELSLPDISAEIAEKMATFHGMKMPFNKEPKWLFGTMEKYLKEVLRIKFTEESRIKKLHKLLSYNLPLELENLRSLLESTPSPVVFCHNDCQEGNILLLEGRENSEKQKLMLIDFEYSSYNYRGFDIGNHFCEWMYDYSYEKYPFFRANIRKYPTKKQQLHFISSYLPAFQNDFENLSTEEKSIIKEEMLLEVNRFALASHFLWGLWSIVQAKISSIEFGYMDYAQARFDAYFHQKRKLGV
Procedure: The effect of compounds 3a–h and 4a–h on ChoKα1 was assayed in purified ChoKα1 as previously described, by determining the rate of incorporation of ^14C from [methyl-^14C]choline into phosphocholine, both in the absence (control) or presence of different inhibitor concentrations. Briefly, 20 ng of purified ChoKα1 were incubated with 1 mM [methyl-^14C]choline (4500 dpm/nmol) in 100 mM Tris-HCl (pH 8.5), 10 mM MgCl2, 10 mM ATP, and incubated at 37 °C for 10 min. The reaction was stopped by immersing the reaction tubes in boiling water for 3 min. Aliquots of the reaction were applied to the origin of silica gel plates in the presence of phosphocholine (0.1 mg) and choline (0.1 mg) as carriers. The chromatography was developed in methanol/0.6% NaCl/28% NH4OH in water (50:50:5, v/v/v) as a solvent, and phosphocholine was visualized under exposure to iodine vapor. The corresponding spot was scraped and transferred to scintillation vials for measurement of radioactivity by a Beckman 6000-TA (Madrid, Spain) liquid-scintillation counter. The 50% inhibitory concentrations (IC50 value) were determined from the % activity of the enzyme at different concentrations of synthetic inhibitor using a sigmoidal dose-response curve (the ED50plus v1.0 software).

[3] = system: HL-60 cells; test: Antiproliferative MTT assay, HL-60; format: cell-based, human; conditions: for GI50: Homo sapiens, HL-60, 72 h, MTT
Procedure: as §1

[4] = system: RS4;11 cells; test: Antiproliferative MTT assay, RS4;11; format: cell-based; conditions: Homo sapiens, 72 h
Procedure: as §1

[5] = system: HeLa cells; test: Antiproliferative MTT assay, HeLa; format: cell-based; conditions: Homo sapiens, 72 h
Procedure: as §1

[6] = system: CCRF-CEM cells; test: Antiproliferative MTT assay, CCRF-CEM; format: cell-based; conditions: Homo sapiens, 72 h
Procedure: as §1

[7] = system: MCF-7 cells; test: Antiproliferative MTT assay, MCF-7; format: cell-based; conditions: Homo sapiens, MCF7, 72 h
Procedure: as §1

[8] = system: choline uptake in HepG2 cells; test: Choline uptake assay; format: cell-based; conditions: Homo sapiens, 10 min preincubation with the compound
Procedure: Choline uptake was determined as previously reported. Briefly, HepG2 cells (200,000 cells/well) were incubated for 10 min at 37 °C either in a medium containing different concentrations of ChoKα1 inhibitors or only with the medium as controls. The medium was then removed and the cells were immediately exposed to a medium containing [methyl-^14C]choline (16 μM, 31 Ci/mol) for 10 min at 37 °C. The incorporation of choline was stopped by medium aspiration followed by two washes with ice-cold PBS containing 580 μM choline. The cells were solubilized in NaOH 0.1 N and an aliquot was used to determine the total amount of radiolabel taken up by the cells.

[9] = Cytotoxicity in resting peripheral blood lymphocytes (MTT); format: cell-based; conditions: human, PBL not stimulated with PHA, healthy donors, read-out: GI50 PBLresting
Procedure: (§2) Additional experiments were conducted with peripheral blood lymphocytes (PBL) from healthy donors obtained as described previously. For cytotoxicity evaluations in proliferating PBL cultures, non-adherent cells were resuspended at 5 × 10^5 cells/mL in a growth medium containing 2.5 µg/mL PHA (Irvine Scientific). Different concentrations of the test compounds were added, and viability was determined 72 h later by the MTT test. For cytotoxicity evaluations in resting PBL cultures, non-adherent cells were resuspended (5 × 10^5 cells/mL) and treated for 72 h with the test compounds, as described above.

[10] = system: HT-29, HeLa, MCF-7, CCRF-CEM, HL-60, and RS4;11cells; test: Antiproliferative MTT assay, panel of six human tumor cell lines; format: cell-based; conditions: HL-60, RS4;11, 72 h
Procedure: as §1

[11] = system: Jurkat cells; test: Apoptosis by annexin-V/PI flow cytometry; format: cell-based, human; conditions: after 24 h of treatment, concentration dependent
Procedure: Jurkat cells were treated with the test compounds and after different times stained with both PI, to stain DNA, and annexin V-fluorescein isothiocyanate, to stain membrane PS exposed on the cell surface, following the instructions of the manufacturer (Roche Diagnostics) of the Annexin-V-Fluos reagent.

[12] = Cytotoxicity in PHA-stimulated peripheral blood lymphocytes (MTT); format: cell-based; conditions: human, PBL stimulated with PHA, healthy donors, read-out: GI50 PBLPHA
Procedure: as §2

Row | GI50 [1] [µM] | IC50 [2] [µM] | GI50 [3] [µM] | GI50 [4] [µM] | GI50 [5] [µM] | GI50 [6] [µM] | GI50 [7] [µM] | GI50 values, range over six cell lines [10] [nM] | Compound | IC50 [8] [µM] | GI50 at 72 h [9] [µM] | apoptotic cells (annexin-V/PI) [11] | GI50 at 72 h [12] [µM] | fold more potent than MN-48b ([3]; against HL-60 leukemic cells, MN-48b ref 23) [fold]
1 | 23.8 ± 8.2 | 2.82 ± 0.16 | 4 ± 0.9 | 31 ± 2.6 | 12.4 ± 1.8 | 8.4 ± 1.6 | 6.7 ± 1.5 |  | CN(C)c1cc[n+](Cc2ccc(CNc3cccc(O)c3)cc2)cc1 [Compound 4e] |  |  |  |  | 
2 | 5.8 ± 1.9 | 3.36 ± 0.17 | 0.33 ± 0.074 | 0.71 ± 0.16 | 0.39 ± 0.12 | 0.086 ± 0.03 | 2.8 ± 0.5 |  | Oc1cccc(NCc2ccc(CCCCc3ccc(C[n+]4ccc(N5CCCC5)cc4)cc3)cc2)c1 [Compound 4d] |  |  |  |  | 
3 | 3.6 ± 1.4 |  | 0.37 ± 0.079 | 0.5 ± 0.08 | 0.7 ± 0.1 | 0.16 ± 0.034 | 2.2 ± 1 |  | CN(C)c1cc[n+](Cc2ccc(CCCCc3ccc(CNc4cccc(O)c4)cc3)cc2)cc1 [Compound 4h] |  |  |  |  | 
4 | 5.2 ± 1.7 | 3.66 ± 0.11 | 0.25 ± 0.066 | 1.1 ± 0.3 | 1.7 ± 0.2 | 0.7 ± 0.1 | 2.4 ± 0.2 |  | CN(C)c1cc[n+](Cc2ccc(CCc3ccc(CNc4cccc(O)c4)cc3)cc2)cc1 [Compound 4g] |  |  |  |  | 
5 | 6.6 ± 2.3 | 3.85 ± 0.1 | 1.1 ± 0.3 | 2.8 ± 0.6 | 2.1 ± 0.4 | 0.5 ± 0.1 | 4.4 ± 0.5 |  | Oc1cccc(NCc2ccc(-c3ccc(C[n+]4ccc(N5CCCC5)cc4)cc3)cc2)c1 [Compound 4b] |  |  |  |  | 
6 | 13.2 ± 5 |  | 1.3 ± 0.4 | 3.7 ± 0.4 | 3.6 ± 0.4 | 1.1 ± 0.4 | 5 ± 1 |  | CN(C)c1cc[n+](Cc2ccc(-c3ccc(CNc4cccc(O)c4)cc3)cc2)cc1 [Compound 4f] | 3.5 ± 0.07 | 7.6 ± 1.1 | significant increase of apoptotic cells | 3.6 ± 0.8 | 
7 | 49.7 ± 11.4 | 3.34 ± 0.34 | 4.1 ± 1.2 | 24.5 ± 2.9 | 12.8 ± 2.6 | 7.3 ± 2.5 | 17.8 ± 5.3 |  | Oc1cccc(NCc2ccc(C[n+]3ccc(N4CCCC4)cc3)cc2)c1 [Compound 4a] |  |  |  |  | 
8 | 5.3 ± 2.1 | 3.83 ± 0.91 | 0.065 ± 0.023 | 0.46 ± 0.061 | 0.86 ± 0.26 | 0.14 ± 0.03 | 1.7 ± 0.4 |  | Oc1cccc(NCc2ccc(CCc3ccc(C[n+]4ccc(N5CCCC5)cc4)cc3)cc2)c1 [Compound 4c] |  |  |  |  | 

Further lines, the molecule ahead of its results:

Row | Compound | GI50 [1] [µM] | IC50 [2] [µM] | GI50 [3] [µM] | GI50 [4] [µM] | GI50 [5] [µM] | GI50 [6] [µM] | GI50 [7] [µM] | GI50 values, range over six cell lines [10] [nM] | IC50 [8] [µM] | GI50 at 72 h [9] [µM] | apoptotic cells (annexin-V/PI) [11] | GI50 at 72 h [12] [µM] | fold more potent than MN-48b ([3]; against HL-60 leukemic cells, MN-48b ref 23) [fold]
9 | Nc1cccc(OCc2ccc(C[n+]3ccc(N4CCCC4)cc3)cc2)c1 [Compound 3a] | 36 ± 7.4 | > 50 | 4.8 ± 0.4 | 16.8 ± 4.8 | 4.8 ± 0.58 | 3.4 ± 0.7 | 22.8 ± 4.3 |  |  |  |  |  | 
10 | CN(C)c1cc[n+](Cc2ccc(CCCCc3ccc(COc4cccc(N)c4)cc3)cc2)cc1 [Compound 3h] |  | 7.01 ± 0.13 |  |  |  |  |  |  |  |  |  |  | 
11 | Nc1cccc(OCc2ccc(CCCCc3ccc(C[n+]4ccc(N5CCCC5)cc4)cc3)cc2)c1 [Compound 3d] | 0.58 ± 0.17 | 6.79 ± 0.47 | 0.12 ± 0.091 | 0.29 ± 0.053 | 0.16 ± 0.048 | 0.015 ± 0.005 | 0.5 ± 0.2 |  | 15.8 ± 0.24 |  |  |  | 
12 | Nc1cccc(OCc2ccc(CCc3ccc(C[n+]4ccc(N5CCCC5)cc4)cc3)cc2)c1 [Compound 3c] | 0.63 ± 0.14 | 8.56 ± 0.94 | 0.011 ± 0.005 | 0.15 ± 0.012 | 0.068 ± 0.028 | 0.03 ± 0.003 | 0.3 ± 0.1 | 630 to 11 |  | > 10 | significant increase of apoptotic cells | > 10 | 30
13 | Nc1cccc(OCc2ccc(-c3ccc(C[n+]4ccc(N5CCCC5)cc4)cc3)cc2)c1 [Compound 3b] |  | 17.5 ± 1.24 |  |  |  |  |  |  |  |  |  |  | 
14 | CN(C)c1cc[n+](Cc2ccc(COc3cccc(N)c3)cc2)cc1 [Compound 3e] | 26.1 ± 6.7 | 6.33 ± 0.8 | 38.7 ± 6.2 | 53.6 ± 13.4 | 8.2 ± 2.4 | 1.2 ± 0.5 | 23.6 ± 5.1 |  |  |  |  |  | 
15 | CN(C)c1cc[n+](Cc2ccc(-c3ccc(COc4cccc(N)c4)cc3)cc2)cc1 [Compound 3f] | 4.4 ± 0.7 | 6.39 ± 0.46 | 2.4 ± 0.7 | 2 ± 0.5 | 4.2 ± 0.5 | 0.54 ± 0.21 | 7.6 ± 1.6 |  |  |  |  |  | 
16 | CN(C)c1cc[n+](Cc2ccc(CCc3ccc(COc4cccc(N)c4)cc3)cc2)cc1 [Compound 3g] | 2.2 ± 0.9 | 4.29 ± 0.12 | 1.6 ± 0.9 | 2.6 ± 0.2 | 1.2 ± 0.2 | 0.4 ± 0.26 | 4.3 ± 0.9 |  |  |  |  |  | 
